Measurements as given in PubChem BioAssay AID1918955 (Molecular Pharmacology Branch, DTP, NCI, 2023).
Several values for one entry are separate records, joined by “and”; a condition that tells them apart may be missing. Identical values can stand only once.

Test system: NCI/ADR-RES complex spheroid viability
Experiment: Anticancer human tumor NCI/ADR-RES cell line growth inhibition;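 note: spheroids exposed to compounds for 7 days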;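 for viability, T/C: 100% = DMSO vehicle treated spheroids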
Conditions: for viability, T/C: stronger effect = lower value
Procedure, shortened: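 Multicellular complex spheroids of tumor cells with human endothelial cells (HUVEC) and mesenchymal stem cells; the LSD1 inhibitor iadademstat was combined with standard-of-care or investigational agents. Top concentration at or near clinical Cmax, half-log dilutions; final DMSO ≤0.25%.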

[1] = curve of first compound, second compound 0.1 µM
[2] = curve of first compound, second compound 0.316 µM
[3] = curve of first compound, second compound 1 µM
[4] = curve of first compound, second compound 3.16 µM
[5] = curve of first compound, second compound 10 µM
[6] = second compound 0.1 µM, first compound 0.00949 µM
[7] = second compound 0.1 µM, first compound 0.03 µM
[8] = second compound 0.1 µM, first compound 0.0949 µM
[9] = second compound 0.1 µM, first compound 0.3 µM
[10] = second compound 0.316 µM, first compound 0.00949 µM
[11] = second compound 0.316 µM, first compound 0.03 µM
[12] = second compound 0.316 µM, first compound 0.0949 µM
[13] = second compound 0.316 µM, first compound 0.3 µM
[14] = second compound 1 µM, first compound 0.00949 µM
[15] = second compound 1 µM, first compound 0.03 µM
[16] = second compound 1 µM, first compound 0.0949 µM
[17] = second compound 1 µM, first compound 0.3 µM
[18] = second compound 3.16 µM, first compound 0.00949 µM
[19] = second compound 3.16 µM, first compound 0.03 µM
[20] = second compound 3.16 µM, first compound 0.0949 µM
[21] = second compound 3.16 µM, first compound 0.3 µM
[22] = second compound 10 µM, first compound 0.00949 µM
[23] = second compound 10 µM, first compound 0.03 µM
[24] = second compound 10 µM, first compound 0.0949 µM
[25] = second compound 10 µM, first compound 0.3 µM

SMILES: CCc1c2c(nc3ccc(O)cc13)-c1cc3c(c(=O)n1C2)COC(=O)[C@]3(O)CC + NC1CCC(NC2CC2c2ccccc2)CC1
- IC50 [1]: < 0.949 nM
- IC50 [2]: < 0.949 nM
- IC50 [3]: < 0.949 nM
- IC50 [4]: < 0.949 nM
- IC50 [5]: < 0.949 nM
- viability, T/C (second compound 0.1 µM, first compound 0.000949 µM): 5.27%
- viability, T/C (second compound 0.1 µM, first compound 0.003 µM): 2.59%
- viability, T/C [6]: 0.6%
- viability, T/C [7]: 1.16%
- viability, T/C [8]: 1.11%
- viability, T/C [9]: 3.88%
- viability, T/C (second compound 0.316 µM, first compound 0.000949 µM): 2.94%
- viability, T/C (second compound 0.316 µM, first compound 0.003 µM): 1.44%
- viability, T/C [10]: 1.36%
- viability, T/C [11]: 2.53%
- viability, T/C [12]: 0.44%
- viability, T/C [13]: 0.37%
- viability, T/C (second compound 1 µM, first compound 0.000949 µM): 6.45%
- viability, T/C (second compound 1 µM, first compound 0.003 µM): 1.09%
- viability, T/C [14]: 1.09%
- viability, T/C [15]: 1.03%
- viability, T/C [16]: 0.47%
- viability, T/C [17]: 0.58%
- viability, T/C (second compound 3.16 µM, first compound 0.000949 µM): 2.6%
- viability, T/C (second compound 3.16 µM, first compound 0.003 µM): 1.07%
- viability, T/C [18]: 0.88%
- viability, T/C [19]: 0.53%
- viability, T/C [20]: 1.24%
- viability, T/C [21]: 2.59%
- viability, T/C (second compound 10 µM, first compound 0.000949 µM): 4.02%
- viability, T/C (second compound 10 µM, first compound 0.003 µM): 1.26%
- viability, T/C [22]: 0.71%
- viability, T/C [23]: 0.53%
- viability, T/C [24]: 0.22%
- viability, T/C [25]: 4.32%

SMILES: CCN(c1cc(-c2ccc(CN3CCOCC3)cc2)cc(C(=O)NCc2c(C)cc(C)[nH]c2=O)c1C)C1CCOCC1 + NC1CC1c1ccc(-c2cccc(O)c2)cc1
- IC50 [1]: > 3000 nM
- IC50 [2]: > 3000 nM
- IC50 [3]: > 3000 nM
- IC50 [4]: > 3000 nM
- IC50 [5]: > 3000 nM
- viability, T/C [6]: 102%
- viability, T/C [7]: 104%
- viability, T/C [8]: 104%
- viability, T/C [9]: 106%
- viability, T/C (second compound 0.1 µM, first compound 0.949 µM): 94.2%
- viability, T/C (second compound 0.1 µM, first compound 3 µM): 88.9%
- viability, T/C [10]: 104%
- viability, T/C [11]: 102%
- viability, T/C [12]: 104%
- viability, T/C [13]: 103%
- viability, T/C (second compound 0.316 µM, first compound 0.949 µM): 105%
- viability, T/C (second compound 0.316 µM, first compound 3 µM): 95.5%
- viability, T/C [14]: 92.1%
- viability, T/C [15]: 96.3%
- viability, T/C [16]: 104%
- viability, T/C [17]: 90.2%
- viability, T/C (second compound 1 µM, first compound 0.949 µM): 93.4%
- viability, T/C (second compound 1 µM, first compound 3 µM): 87.7%
- viability, T/C [18]: 93%
- viability, T/C [19]: 99%
- viability, T/C [20]: 95.3%
- viability, T/C [21]: 94.9%
- viability, T/C (second compound 3.16 µM, first compound 0.949 µM): 90.2%
- viability, T/C (second compound 3.16 µM, first compound 3 µM): 81.8%
- viability, T/C [22]: 92.6%
- viability, T/C [23]: 87.8%
- viability, T/C [24]: 91.8%
- viability, T/C [25]: 86.7%
- viability, T/C (second compound 10 µM, first compound 0.949 µM): 82.7%
- viability, T/C (second compound 10 µM, first compound 3 µM): 79%

SMILES: CC1COCCN1c1cc(-c2ccnn2C)c2ccnc(-c3ccn[nH]3)c2n1 (configuration not stated) + NC1CC1c1ccc(-c2cccc(O)c2)cc1
- IC50 [1]: 11.8 nM
- IC50 [2]: 13.6 nM
- IC50 [3]: 12.3 nM
- IC50 [4]: 12.6 nM
- IC50 [5]: 13 nM
- viability, T/C (second compound 0.1 µM, first compound 0.00316 µM): 94.5%
- viability, T/C (second compound 0.1 µM, first compound 0.01 µM): 56.5%
- viability, T/C (second compound 0.1 µM, first compound 0.0316 µM): 11.9%
- viability, T/C (second compound 0.1 µM, first compound 0.1 µM): 2.87%
- viability, T/C (second compound 0.1 µM, first compound 0.316 µM): 1.82%
- viability, T/C (second compound 0.1 µM, first compound 1 µM): 1.99%
- viability, T/C (second compound 0.316 µM, first compound 0.00316 µM): 93.9%
- viability, T/C (second compound 0.316 µM, first compound 0.01 µM): 63.8%
- viability, T/C (second compound 0.316 µM, first compound 0.0316 µM): 11.9%
- viability, T/C (second compound 0.316 µM, first compound 0.1 µM): 2.5%
- viability, T/C (second compound 0.316 µM, first compound 0.316 µM): 2.17%
- viability, T/C (second compound 0.316 µM, first compound 1 µM): 2.31%
- viability, T/C (second compound 1 µM, first compound 0.00316 µM): 95.2%
- viability, T/C (second compound 1 µM, first compound 0.01 µM): 57.5%
- viability, T/C (second compound 1 µM, first compound 0.0316 µM): 16.2%
- viability, T/C (second compound 1 µM, first compound 0.1 µM): 2.46%
- viability, T/C (second compound 1 µM, first compound 0.316 µM): 1.61%
- viability, T/C (second compound 1 µM, first compound 1 µM): 1.71%
- viability, T/C (second compound 3.16 µM, first compound 0.00316 µM): 92.3%
- viability, T/C (second compound 3.16 µM, first compound 0.01 µM): 58.4%
- viability, T/C (second compound 3.16 µM, first compound 0.0316 µM): 16.9%
- viability, T/C (second compound 3.16 µM, first compound 0.1 µM): 2.63%
- viability, T/C (second compound 3.16 µM, first compound 0.316 µM): 1.85%
- viability, T/C (second compound 3.16 µM, first compound 1 µM): 2.16%
- viability, T/C (second compound 10 µM, first compound 0.00316 µM): 75.9%
- viability, T/C (second compound 10 µM, first compound 0.01 µM): 58.6%
- viability, T/C (second compound 10 µM, first compound 0.0316 µM): 20.3%
- viability, T/C (second compound 10 µM, first compound 0.1 µM): 4.64%
- viability, T/C (second compound 10 µM, first compound 0.316 µM): 2.38%
- viability, T/C (second compound 10 µM, first compound 1 µM): 2.48%

SMILES: O=C(C=Cc1cccc(S(=O)(=O)Nc2ccccc2)c1)NO
- viability, T/C (compound 0.00949 µM): 95.3% and 96%
- viability, T/C (compound 0.03 µM): 81.6% and 75.3%
- viability, T/C (compound 0.0949 µM): 36.6% and 42%
- viability, T/C (compound 0.3 µM): 16.7% and 17.2%
- viability, T/C (compound 0.949 µM): 7.77% and 6.17%
- viability, T/C (compound 3 µM): 2.68% and 1.54%
- IC50 (curve of compound): 69.7 nM and 72.5 nM
